These results are taken from ChEMBL document CHEMBL4376830, “Diterpenoids and Bisnorditerpenoids from Blumea aromatica” (2019).

Activity calls are given as the source filed them. The calls are words filed in the database; no cut-off is given here.

For one experiment, the species on record is Mus musculus. The experiment in a line: Anti-immunosuppressive activity in LPS-activated mouse MDSC assessed as reduction in PD-L1 expression at 20 to 40 uM incubated for 24 hrs by flow cytometry. In kind it is functional.
In the case of `CC(=O)/C=C/[C@H]1[C@](C)(O)[C@@H](O)[C@H](OC(=O)C=C(C)C)[C@H]2C(C)(C)CCC[C@@]21C`, the inhibition entry was “inactive”. On the same count and under the same terms, the value for `CCC(C)/C(=C/C(=O)O)C(=O)O` (stereo unspecified) was “inactive”; that for `COC(=O)[C@@]1(O)C[C@@H](O)[C@@H](OC(=O)/C=C/c2ccc(O)c(O)c2)[C@H](OC(=O)/C=C/c2ccc(O)c(O)c2)C1` was “inactive”. Same read-out and setting: the value for `CC(=O)/C=C/[C@H]1[C@](C)(O)[C@@H](O)[C@H](O)[C@H]2C(C)(C)CCC[C@@]21C` was “inactive”; that for `C=CC(=C)[C@@H](O)C[C@H]1[C@](C)(O)[C@@H](O)[C@H](O)[C@H]2C(C)(C)CCC[C@@]21C` was “inactive”.

Regarding `CCC(C)/C(=C/C(=O)O)C(=O)OC` (stereo unspecified), the inhibition entry is “inactive”. As for `O=C(/C=C/c1ccc(O)c(O)c1)O[C@@H]1[C@H](O)C[C@](O)(C(=O)O)C[C@H]1OC(=O)/C=C/c1ccc(O)c(O)c1`, the inhibition result is “inactive”. Consider `O=C(/C=C/c1ccc(O)c(O)c1)O[C@H]1[C@H](O)C[C@](O)(C(=O)O)C[C@H]1OC(=O)/C=C/c1ccc(O)c(O)c1`, for which the inhibition result was “inactive”. On the same count and under the same terms, the entry for `CC(=O)/C=C/[C@H]1[C@](C)(O)[C@@H](O)[C@H](OC(=O)CC(C)C)[C@H]2C(C)(C)CCC[C@@]21C` is “inactive”; for `O=Cc1c[nH]c2ccccc12` it is “inactive”.

Turning to `O=C(/C=C/c1ccc(O)c(O)c1)O[C@@H]1C[C@](O)(C(=O)O)C[C@@H](OC(=O)/C=C/c2ccc(O)c(O)c2)[C@@H]1O`, the inhibition entry was “inactive”.

Consider `O=C(/C=C/c1ccc(O)c(O)c1)O[C@@H]1C[C@](OC(=O)/C=C/c2ccc(O)c(O)c2)(C(=O)O)C[C@@H](O)[C@@H]1O`, for which the inhibition entry is “inactive”. In the case of `O=C(/C=C/c1ccc(O)c(O)c1)O[C@@H]1C[C@@](O)(C(=O)O)C[C@@H](O)[C@H]1O`, the inhibition entry is “inactive”. Consider `CC1(C)C[C@H](O)C[C@@](C)(O)/C1=C\C(=O)O`, for which the inhibition result was “inactive”. As for `COc1ccc(-c2oc3cc(O)c(OC)c(O)c3c(=O)c2OC)cc1` [SANTIN], the inhibition result was “inactive”.

Take `C=C/C(C)=C/C[C@H]1[C@](C)(O)[C@@H](O)[C@H](OC(=O)CC(C)C)[C@H]2C(C)(C)CCC[C@@]21C`: the inhibition entry is “inactive”. The same measure, in the same setting: the value for `CC[C@H](CC[C@@H](C)[C@H]1CC[C@H]2[C@@H]3CC=C4C[C@@H](O)CC[C@]4(C)[C@H]3CC[C@]12C)C(C)C` was “inactive”; that for `C=CC(=C)[C@H](O)C[C@H]1[C@](C)(O)[C@@H](O)[C@H](O)[C@H]2C(C)(C)CCC[C@@]21C` was “inactive”; that for `O=c1c(O[C@@H]2O[C@H](CO)[C@@H](O)[C@H](O)[C@H]2O)c(-c2ccc(O)cc2)oc2cc(O)cc(O)c12` was “inactive”.

On to `C=C/C(C)=C/C[C@H]1[C@](C)(O)[C@@H](O)[C@H](O)[C@H]2C(C)(C)CCC[C@@]21C`, for which the inhibition entry is “inactive”.

Regarding `C/C=C(/C)C(=O)O[C@H]1[C@H](O)[C@@](C)(O)[C@H](/C=C/C(C)=O)[C@@]2(C)CCCC(C)(C)[C@H]12`, the inhibition result is “inactive”. On the same count and under the same terms, the value for `CCCCOC(=O)[C@@]1(O)C[C@@H](O)[C@@H](OC(=O)/C=C/c2ccc(O)c(O)c2)[C@H](OC(=O)/C=C/c2ccc(O)c(O)c2)C1` was “inactive”. Still for that read-out and setting: the entry for `O=C(O)/C=C/C(=O)O` is “inactive”.

Another experiment has as its system RAW264.7. The experiment in a line: Anti-inflammatory activity in LPS-stimulated mouse RAW264.7 cells assessed as reduction in TNF-alpha production at 40 uM by ELISA relative to control. In kind it is functional.
For the compound `O=C(/C=C/c1ccc(O)c(O)c1)O[C@@H]1[C@H](O)C[C@](O)(C(=O)O)C[C@H]1OC(=O)/C=C/c1ccc(O)c(O)c1`, the inhibition at 40 µM came to 15.5%. For the compound `CC1(C)C[C@H](O)C[C@@](C)(O)/C1=C\C(=O)O`, the inhibition at 40 µM was found to be 27.5%.

For `COc1ccc(-c2oc3cc(O)c(OC)c(O)c3c(=O)c2OC)cc1` [SANTIN], the inhibition at 40 µM turned out to be 24%.
